This is an account of results in US20220235030A1, “SELECTIVE HISTAMINE H3 ANTAGONIST ACID ADDITION SALTS AND PROCESS FOR THE PREPARATION THEREOF” (RICHTER GEDEON NYRT., priority 2019, published 2022).

SMILES strings stand for the structures. “Also recorded” adds a separate entry of the source. Where a name gives a salt, the structure may show the parent alone. Read-outs that look alike come from different tables or passages of the source.

One may read the solubility as how much of the substance goes into solution per volume.

What all share (format): physicochemical
The nature of series [1]: Solubility in simulated gastric fluid. Conditions: simulated gastric fluid (SGF without pepsin, pH=1.3). The source says:
The generally observed hygroscopic nature of the 1-[4-(4-{3-[(2R)-2-methyl-pyrrolidin-1-yl]-propoxy}-phenoxy)-piperidin-1-yl]-ethanone salts is inter alia related to the good solubility thereof.

Series [2] is described as follows: Thermogravimetric (TG) analysis of thermal stability. From the text: The compound of 1-[4-(4-{3-[(2R)-2-methyl-pyrrolidin-1-yl]-propoxy}-phenoxy)-piperidin-1-yl]-ethanone contains a single strongly basic center (pyrrolidine nitrogen), which is capable of forming stoichiometric salt with equimolar hydrochloride, thus the formation of dihydrochloride stoichiometry is not expected in view of the acid/base character of the compound. Based on TG and DSC analysis, the second molar amount of hydrochloride is less strongly bound to the crystal lattice, behaving as a volatile component. […] (FIG. 8). Parallelly to this process, according to the DSC and microscopic analysis, the sample starting from approx. 100° C. melts during decomposition (FIG. 9).

The nature of series [3]: Dynamic vapor sorption (DVS) analysis at 25° C., hygroscopicity and deliquescence. Further details: Δm/ΔRH: unit not given beside the values. Particulars: for Critical Relative Humidity (CRH): RH1 of first sorption step with Δm/ΔRH≥0.5. Here is the method:
Determination of the critical relative humidity is feasible by gravimetric method, e.g. with DVS, where relative humidity is changed in suitably selected steps and a sufficiently long time is used to the onset of quasi-equilibrium.
The deliquescence tendency of each salt is characterized by the critical relative humidity (CRH) value (Table 1), which was determined based on the sorption curves measured according to the measurement parameter settings below, with DVS analysis at 25° C. isotherm conditions, according to the following. […]
If the given sorption step is Δm/ΔRH≥0.5, then RH1 is considered to be the critical relative humidity (CRH) value indicating the end point of the physical stability of the substance. The value thus determined is a good match with the onset of a significant monotonic weight gain observed visually on the sorption curve. Above the critical relative humidity value, it is the process of deliquescence of the substance that determines the weight gain observed on the sorption curve.

The nature of series [4]: 10-day solid stress stability study, HPLC purity test. Conditions: for chemical stability (in words): 10-day solid stress: heat, heat and humidity. From the text:
Increased stability to ambient humidity is beneficial for longer-term physical and chemical stability of the active ingredient. The relationship between the reduced hygroscopic nature and the increased chemical stability associated with it is shown in the most preferred citrate salts in comparison to the dihydrochloride salt.

`CC(=O)N1CCC(Oc2ccc(OCCCN3CCC[C@H]3C)cc2)CC1` [diHCl, 1-[4-(4-{3-[(2R)-2-methyl-pyrrolidin-1-yl]-propoxy}-phenoxy)-piperidin-1-yl]-ethanone dihydrochloride salt]: the solubility result in series [1] (dihydrochloride salt) was “greater than 59 mM”. Further, the “thermal stability (in words)” value in series [2] is “thermally poorly stable”. In addition, the “Critical Relative Humidity (CRH)” value in series [3] (DVS at 25° C., dihydrochloride salt) came out at 60%. In addition, the Δm/ΔRH in series [3] (RH1 0%, sorption, 25° C., dihydrochloride salt) worked out at 0.0; in series [3] (RH1 10%, sorption, 25° C., dihydrochloride salt) it was 0.0; in series [3] (RH1 20%, sorption, 25° C., dihydrochloride salt) it was 0.0; in series [3] (RH1 30%, sorption, 25° C., dihydrochloride salt), 0.0; in series [3] (RH1 40%, sorption, 25° C., dihydrochloride salt) it was 0.0; in series [3] (RH1 50%, sorption, 25° C., dihydrochloride salt), 0.0. In addition, the Δm/ΔRH in series [3] (RH1 60%, sorption, 25° C., dihydrochloride salt) is 1.7; in series [3] (RH1 70%, sorption, 25° C., dihydrochloride salt), 2.4; in series [3] (RH1 80%, sorption, 25° C., dihydrochloride salt), 2.1. In addition, the “hygroscopicity (in words)” value in series [3] (dihydrochloride salt) is reported as “highly hygroscopic”. The same compound returned a relative weight gain in series [3] (sorption curve, at 70% RH) of 17%. Besides, the relative weight change in series [3] (sorption curve, at 90% RH) amounted to 63%. The “water bound relative to the dried mass” value in series [3] (sorption curve, up to 60% RH) was “about 0.7%”. Moreover, in series [3] (sorption, DVS at 25° C., dihydrochloride salt), the “relative humidity above which high, continuous weight gain (deliquescence) is observed” value was “above 60%”. Moreover, the “chemical stability (in words)” value in series [4] (dihydrochloride salt) is “slightly degraded by heat; also recorded: degrades significantly under the combined effect of heat and humidity”. The “All contaminant (area %)” value in series [4] (10 days, 40° C., 75% RH, open glass, dihydrochloride salt) is 59.56% area %; in series [4] (10 days, 50° C., 75% RH, open glass, dihydrochloride salt), 51.32% area %; in series [4] (10 days, 50° C., sealed glass, dihydrochloride salt) it was 0.98% area %; in series [4] (10 days, 75° C., sealed glass, dihydrochloride salt), 1.50% area %; in series [4] (starting sample, dihydrochloride salt), 0.85% area %.
For `CC(=O)N1CCC(Oc2ccc(OCCCN3CCC[C@H]3C)cc2)CC1` [dicitrate, 1-[4-(4-{3-[(2R)-2-methyl-pyrrolidin-1-yl]-propoxy}-phenoxy)-piperidin-1-yl]-ethanone dicitrate salt], the solubility in series [1] (dicitrate salt) is given as 469 mM. In addition, in series [3] (DVS at 25° C., dicitrate salt), the “Critical Relative Humidity (CRH)” value was “not deliquescent”. Moreover, the Δm/ΔRH is listed as 0.0 in series [3] (RH1 0%, sorption, 25° C., dicitrate salt); 0.0 in series [3] (RH1 10%, sorption, 25° C., dicitrate salt); 0.0 in series [3] (RH1 20%, sorption, 25° C., dicitrate salt); 0.0 in series [3] (RH1 30%, sorption, 25° C., dicitrate salt); 0.0 in series [3] (RH1 40%, sorption, 25° C., dicitrate salt); 0.0 in series [3] (RH1 50%, sorption, 25° C., dicitrate salt). Besides, the Δm/ΔRH in series [3] (RH1 60%, sorption, 25° C., dicitrate salt) came out at 0.0; in series [3] (RH1 70%, sorption, 25° C., dicitrate salt), 0.0; in series [3] (RH1 80%, sorption, 25° C., dicitrate salt), 0.1. In addition, the “deliquescence (in words)” value in series [3] (above 90% RH, DVS 25° C., dicitrate salt) is recorded as “does not show deliquescence”; in series [3] (under the conditions of the DVS analysis, dicitrate salt), “do not show deliquescence; also recorded: not deliquescent”. Moreover, the “hygroscopicity (in words)” value in series [3] (dicitrate salt) is given as “poorly hygroscopic”. The water bound in series [3] (sorption curve, up to 80% RH, dicitrate salt) worked out at 3.2%; in series [3] (sorption curve, up to 90% RH) it was 6.8%. For the same compound, in series [4] (dicitrate salt), the “chemical stability (in words)” value is reported as “stable”. Also, the “All contaminant (area %)” value came to 0.24% area % in series [4] (10 days, 40° C., 75% RH, open glass, dicitrate salt); 0.25% area % in series [4] (10 days, 50° C., 75% RH, open glass, dicitrate salt); 0.23% area % in series [4] (10 days, 50° C., sealed glass, dicitrate salt); 0.24% area % in series [4] (10 days, 75° C., sealed glass, dicitrate salt); 0.23% area % in series [4] (starting sample, dicitrate salt).
Take `CC(=O)N1CCC(Oc2ccc(OCCCN3CCC[C@H]3C)cc2)CC1` [monocitrate, 1-[4-(4-{3-[(2R)-2-methyl-pyrrolidin-1-yl]-propoxy}-phenoxy)-piperidin-1-yl]-ethanone monocitrate salt Form A]: the solubility entry in series [1] is recorded as “greater than 44 mM”. In series [3], the “hygroscopicity (in words)” value is recorded as “poorly hygroscopic”. For the same compound, the “Critical Relative Humidity (CRH)” value in series [3] (DVS at 25° C.) is “not deliquescent”. The Δm/ΔRH in series [3] (RH1 0%, sorption, 25° C.) is given as 0.0; in series [3] (RH1 10%, sorption, 25° C.), 0.0; in series [3] (RH1 20%, sorption, 25° C.), 0.2; in series [3] (RH1 30%, sorption, 25° C.), 0.1; in series [3] (RH1 40%, sorption, 25° C.) it was 0.0; in series [3] (RH1 50%, sorption, 25° C.) it was 0.0. The Δm/ΔRH in series [3] (RH1 60%, sorption, 25° C.) was determined as 0.0; in series [3] (RH1 70%, sorption, 25° C.), 0.0; in series [3] (RH1 80%, sorption, 25° C.), 0.0. For the same compound, the “deliquescence (in words)” value in series [3] (above 90% RH, DVS 25° C.) is “did not show deliquescence”; in series [3] (under the conditions of the DVS analysis), “not deliquescent”; in series [3] (under the conditions of the DVS analysis, listed as Monocitrate) it was “do not show deliquescence”. Besides, the “relative humidity at which monohydrate Form A converts to anhydrate Form B” value in series [3] (during desorption) is listed as “below 10 % RH”. Also, in series [4], the “chemical stability (in words)” value was “stable”. The “All contaminant (area %)” value in series [4] (10 days, 40° C., 75% RH, open glass) worked out at 0.19% area %; in series [4] (10 days, 50° C., 75% RH, open glass) it was 0.19% area %; in series [4] (10 days, 50° C., sealed glass), 0.20% area %; in series [4] (10 days, 75° C., sealed glass), 0.19% area %; in series [4] (starting sample) it was 0.19% area %.
In the case of `CC(=O)N1CCC(Oc2ccc(OCCCN3CCC[C@H]3C)cc2)CC1` [sulfate, 1-[4-(4-{3-[(2R)-2-methyl-pyrrolidin-1-yl]-propoxy}-phenoxy)-piperidin-1-yl]-ethanone sulfate salt], the “Critical Relative Humidity (CRH)” value in series [3] (DVS at 25° C., sulfate salt) was found to be 80%. Besides, the Δm/ΔRH in series [3] (RH1 0%, sorption, 25° C., sulfate salt) was found to be 0.4; in series [3] (RH1 10%, sorption, 25° C., sulfate salt), 0.0; in series [3] (RH1 20%, sorption, 25° C., sulfate salt), 0.0; in series [3] (RH1 30%, sorption, 25° C., sulfate salt), 0.0; in series [3] (RH1 40%, sorption, 25° C., sulfate salt) it was 0.0; in series [3] (RH1 50%, sorption, 25° C., sulfate salt), 0.0. Besides, the Δm/ΔRH in series [3] (RH1 60%, sorption, 25° C., sulfate salt) stood at 0.0; in series [3] (RH1 70%, sorption, 25° C., sulfate salt) it was 0.1; in series [3] (RH1 80%, sorption, 25° C., sulfate salt), 1.6. For the same compound, the relative weight change in series [3] (sorption curve, 95% RH, 25° C., sulfate salt) was 53%. In addition, the water bound entry in series [3] (sorption curve, up to 80% RH, sulfate salt) is “about 5%”.
